Test results reported in US10072293B2, “Systems, models and methods for identifying and evaluating skin-active agents effective for treating dandruff/seborrheic dermatitis” (The Procter and Gamble Company, priority 2011, dated 2018).
Values joined by “and” are separate entries in the source; they are usually repeats but may differ in a detail not shown here. Equal values may be shown once.

Key:
[1] = tested on: human 3-dimensional organotypic cultures; assay: In vitro model of dandruff: organotypic skin cultures given IL-22 and IL-17A; type: cell-based; conditions: organotypic cultures treated with IL-22 and IL-17A
Text: In some embodiments, the methods of the present invention may further comprise testing the selected candidate cosmetic agent, using in vitro assays and/or in vivo testing, to validate the activity of the agent and usefulness as a cosmetic agent. Any suitable in vitro test method can be used, including those known in the art, and most preferably in vitro models developed in accordance with the present invention. For example, MatTek human skin equivalent cultures or other skin equivalent cultures may be treated with one or a combination of perturbagens selected for mimicry of the skin condition of interest with respect to regulation of the genes constituting a physiological theme pattern for the skin condition of interest. The treated skin culture replicates the, for example, dandruff condition where it is treated with IL17 and IL22 in accordance with the instant invention, and perturbagens may be screened for their ability to shift the homeostatic equilibrium of the treated skin culture toward healthy skin, as determined by transcriptional analysis. Skin biopsy assays may also be used to evaluate candidate skin-active agents as anti-dandruff agents. In some embodiments, evaluation of selected agents using in vitro assays may reveal, confirm, or both, that one or more new candidate cosmetic agents may be used in conjunction with a known cosmetic agent (or a combination of known cosmetic agents) to regulate a skin condition of interest.
A great challenge in the identification of new therapeutics is the development of in vitro models that are predictive of clinical efficacy. Because no animal models of the dandruff condition are available, there is a need for a model with high fidelity to the internal disease state so that it recapitulates the key features of dandruff lesional skin in vivo. The challenge of developing a good in vitro model for skin conditions such as dandruff is complicated by the fact that the events that trigger the development of dandruff are poorly understood. Transcriptomic profiling work in dandruff lesional skin has provided many new clues, chief among them evidence for a Th-17 driven inflammatory process.
These substances include selenium sulfide, ZPT, ketoconazole, clobetasol propionate and the iron chelator 1,10-phenanthroline.
The in vitro disease simulation according to the invention produces a pattern of gene expression that strongly resembles dandruff lesional skin. Affymetrix U133A Plus 2 microarrays were used to evaluate the gene expression profile elicited by exposure of organotypic human skin cultures to a variety of proinflammatory cytokines individually and in combination, as set forth in FIG. 21A and FIG. 21B. […] This strongly supports that the simulation is producing a gene expression pattern that resembles the disease condition.

[2] = tested on: Human telomerized keratinocytes (tKC); assay: C-map query with lipid metabolism / immune-inflammation dandruff gene signature, keratinocyte instances; type: cell-based
Text: In a very specific embodiment, an instance consists of the rank ordered data for all of the probe sets on the Affymetrix HG-U133A2.0 GeneChip wherein each probe on the chip has a unique probe set IDentifier. The probe sets are rank ordered by the fold change relative to the controls in the same C-map batch (single instance/average of controls).
Individual experiments (referred to as batches) generally comprise 30 to 96 samples analyzed using Affymetrix GeneChip® technology platforms, containing 6 replicates of the vehicle control (e.g., DMSO), 2 replicate samples of a positive control that gives a strong reproducible effect in the cell type used, and samples of the test material/perturbagen. Replication of the test material is done in separate batches due to batch effects. In vitro testing was performed in 6-well plates to provide sufficient RNA for GeneChip® analysis (2-4 μg total RNA yield/well).
(§1) Human telomerized keratinocytes (tKC) were obtained from the University of Texas, Southwestern Medical Center, Dallas, Tex. tKC cells were grown in EpiLife® media with 1× Human Keratinocyte Growth Supplement (Invitrogen, Carlsbad, Calif.) on collagen I coated cell culture flasks and plates (Becton Dickinson, Franklin Lakes, N.J.). Keratinocytes were seeded into 6-well plates at 20,000 cells/cm^2 24 hours before chemical exposure. Human skin fibroblasts (BJ cell line from ATCC, Manassas, Va.) were grown in Eagle's Minimal Essential Medium (ATCC) supplemented with 10% fetal bovine serum (HyClone, Logan, Utah) in normal cell culture flasks and plates (Corning, Lowell, Mass.). BJ fibroblasts were seeded into 6-well plates at 12,000 cells/cm^2 24 hours before chemical exposure.
All cells were incubated at 37° C. in a humidified incubator with 5% CO2. At t=−24 hours cells were trypsinized from T-75 flasks and plated into 6-well plates in basal growth medium. At t=0 media was removed and replaced with the appropriate dosing solution as per the experimental design.

MCF7 = assay: C-map query with lipid metabolism / immune-inflammation dandruff gene signature, MCF7 instances; conditions: MCF7, 10 μM
[3] = tested on: fibroblast and keratinocyte cell lines; assay: C-map query with lipid-immune dandruff signature, whole database; type: cell-based, human; conditions: each agent tested at several concentrations
Description: as §1
Each agent was tested at several concentrations.

[4] = tested on: scalp skin of dandruff subjects; assay: ZPT transcriptomics study: double-blind, vehicle-controlled shampoo treatment, scalp biopsy gene expression; type: in vivo, human; conditions: shampoo with 1% ZPT, 3 times a week for 3 weeks, week 3
Text: 1) 31 healthy male subjects aged 18-75 were divided into two groups of 16 “non-dandruff” and 15 “dandruff” subjects, as defined by a published flake scoring procedure, adherent scalp flake score (ASFS). […] 2) In a double-blinded treatment study, 45 healthy male subjects (30 dandruff and 15 non-dandruff as defined by ASFS criteria, aged 18-50 years) were enrolled and were shampooed at the clinical site three (3) times a week for three (3) weeks with either a commercially available anti-dandruff shampoo with 1% ZPT (15 dandruff subjects) or the same formula without ZPT (15 dandruff and 15 non-dandruff subjects). Full thickness 2 mm biopsies were collected from all three groups at baseline and end of study. Total RNA was extracted from the biopsies and labeled for Affymetrix GeneChip® analysis. The synthesized target cRNA was hybridized to Affymetrix HG U133A microarrays. Statistically analyzed data were filtered by significance (p<0.05, Dandruff vs. Non-Dandruff; ZPT vs. vehicle treatments) to identify genes showing an increase or decrease in expression level, a standard bioinformatics approach. Methodology and Results of Study 1:
The subject's hair/scalp was washed by study personnel on clinical site 3×/week for 3 weeks. Full thickness 2 mm punch biopsies collected at baseline and end of study. […]

[5] = tested on: human keratinocytes (hKC); assay: Connectivity map linkage scores, inflammatory skin disorder signature, hKC instances; type: cell-based
Text: (§2) Gene expression data from five inflammatory skin disorders (acne, atopic dermatitis, dandruff, eczema and psoriasis) were collected from a clinical genomics study and published studies. The raw expression data were used to produce a rank-ordered list of most differentially regulated genes associated with inflammatory skin disorders.
The derived gene signature was used to query a provided database comprising gene expression data from clinical genomics studies of a widely different inflammatory skin disorders, published in vitro genomics studies of disparate inflammatory skin disorders, and genomics data from an internal in vitro model of dandruff inflammatory pathology (human organotypic, MatTek, cultures). […] Thus, the internal model was validated as being useful for study of inflammatory cascades and other gene expression alterations associated with inflammatory skin disorders.

[6] = tested on: reconstituted human epidermis (RHE); assay: Connectivity map linkage scores, inflammatory skin disorder signature (top 70 up / 70 down), RHE instances; type: cell-based; design: scale not given here
Text: as §2
The derived gene signature was used to query a provided database comprising gene expression data from clinical genomics studies of a widely different inflammatory skin disorders, published in vitro genomics studies of disparate inflammatory skin disorders, and genomics data from an internal in vitro model of dandruff inflammatory pathology (human organotypic, MatTek, cultures).

With `c1cnc2c(c1)ccc1cccnc12` [1,10-phenanthroline] the “Blocking of IL-22/IL-17A-induced responses (hyperplasia, perturbed differentiation markers, IL-8 secretion)” value [1] was “capable of blocking these responses”.

`CC(C)(C)C(=O)C(Oc1ccc(Cl)cc1)n1ccnc1` (centres unmarked) [Climbazole] was tested, and the “Score (connectivity score)” value ([2]; 1 μM, 6hr (chip ID)) was −0.55 and the “Score (connectivity score)” value ([2]; 10 μM, 24hr (chip ID)) was −0.67.

With `CCC(=O)O[C@]1(C(=O)CCl)[C@@H](C)C[C@H]2[C@@H]3CCC4=CC(=O)C=C[C@]4(C)[C@@]3(F)[C@@H](O)C[C@@]21C` [Clobetasol Propionate] the “Blocking of IL-22/IL-17A-induced responses (hyperplasia, perturbed differentiation markers, IL-8 secretion)” value [1] was “capable of blocking these responses”.

For `CC(=O)N1CCN(c2ccc(OCC3COC(Cn4ccnc4)(c4ccc(Cl)cc4Cl)O3)cc2)CC1` (centres unmarked) [Ketoconazole], the “Score (connectivity score)” value ([2]; 1 μM, 24hr (chip ID)) was −0.58 and the “Blocking of IL-22/IL-17A-induced responses (hyperplasia, perturbed differentiation markers, IL-8 secretion)” value [1] was “capable of blocking these responses”.

In the case of `CN(CCOc1ccc(CC2SC(=O)NC2=O)cc1)c1ccccn1` (centres unmarked) [Rosiglitazone], the “Score (connectivity score)” value (MCF7) is reported as −0.51.

With `O=C(O)Cc1cc(I)c(Oc2ccc(O)c(I)c2)c(I)c1` [Triac] the “Score (connectivity score)” value ([2]; 10 μM, exposure time not given) was −0.53.

For `[O-]n1ccccc1=S.[O-]n1ccccc1=S.[Zn+2]` [ZPT, zinc salt of 1-hydroxy-2-pyrithione], the “Linkage to lipid-immune dandruff gene signature” value [3] was “not in the list of instances strongly linked to the gene signature”, the “Scalp gene expression profile shift (~3700 significantly altered genes, hierarchical clustering)” value [4] was “expression shift toward the non-dandruff condition” and the “Blocking of IL-22/IL-17A-induced responses (hyperplasia, perturbed differentiation markers, IL-8 secretion)” value [1] was “capable of blocking these responses”.

In the case of `S=[Se]=S` [selenium sulfide], the “Linkage to lipid-immune dandruff gene signature” value [3] is reported as “not in the list of instances strongly linked to the gene signature” and the “Blocking of IL-22/IL-17A-induced responses (hyperplasia, perturbed differentiation markers, IL-8 secretion)” value [1] is reported as “capable of blocking these responses”.

In the case of “HK23/2 IL17: interleukin; proinflammatory cytokine produced by Th-17 cells”, the “Down Score” value ([5]; 200 ng/ml) is reported as −0.151, the Score ([5]; 200 ng/ml) is reported as 0.579 and the “Up Score” value ([5]; 200 ng/ml) is reported as 0.428.

IL1b: interleukin was tested, and the Score ([6]; 10 ng/ml) was 0.710 and 0.649 and the “Up Score” value ([6]; 10 ng/ml) was 0.420 and 0.380.

B1: IFNg: interferon (protein, UniProt P01579 24-161, looked up)
Interferon gamma: QDPYVKEAENLKKYFNAGHSDVADNGTLFLGILKNWKEESDRKIMQSQIVSFYFKLFKNFKDDQSIQKSVETIKEDMNVKFFNSNKKKRDDFEKLTNYSVTDLNVQRKAIHELIQVMAELSPAAKTGKRKRSQMLFRG
In the case of B1, the “Down Score” value ([5]; 20 ng/ml) is reported as −0.102, the Score ([5]; 20 ng/ml) is reported as 0.552 and the “Up Score” value ([5]; 20 ng/ml) is reported as 0.450. The Score ([6]; 10 ng/ml) was 0.665 and 0.657 and the “Up Score” value ([6]; 10 ng/ml) was 0.420 and 0.431.

B2: IL19: interleukin (protein, UniProt Q9UHD0 25-177, looked up)
Interleukin-19: LRRCLISTDMHHIEESFQEIKRAIQAKDTFPNVTILSTLETLQIIKPLDVCCVTKNLLAFYVDRVFKDHQEPNPKILRKISSIANSFLYMQKTLRQCQEQRQCHCRQEATNATRVIHDNYDQLEVHAAAIKSLGELDVFLAWINKNHEVMFSA
For B2, the Score ([6]; 20 ng/ml) was 0.749 and 0.729 and 0.807 and the “Up Score” value ([6]; 20 ng/ml) was 0.410 and 0.460 and 0.505.

B3: IL24: interleukin (protein, UniProt Q13007 52-206, looked up)
Interleukin-24: QEFHFGPCQVKGVVPQKLWEAFWAVKDTMQAQDNITSARLLQQEVLQNVSDAESCYLVHTLLEFYLKTVFKNYHNRTVEVRTLKSFSTLANNFVLIVSQLQPSQENEMFSIRDSAHRRFLLFRRAFKQLDVEAALTKALGEVDILLTWMQKFYKL
With B3 the Score ([6]; 20 ng/ml) was 0.833 and 0.829 and 0.801 and the “Up Score” value ([6]; 20 ng/ml) was 0.485 and 0.517 and 0.461.

B4: IL22: interleukin; proinflammatory cytokine produced by Th-17 cells (protein, UniProt Q9GZX6 34-179, looked up)
Interleukin-22: APISSHCRLDKSNFQQPYITNRTFMLAKEASLADNNTDVRLIGEKLFHGVSMSERCYLMKQVLNFTLEEVLFPQSDRFQPYMQEVVPFLARLSNRLSTCHIEGDDLHIQRNVQKLKDTVKKLGESGEIKAIGELDLLFMSLRNACI
With B4 the “Down Score” value ([5]; 200 ng/ml) was −0.214, the Score ([5]; 200 ng/ml) was 0.573 and the “Up Score” value ([5]; 200 ng/ml) was 0.358. For the same molecule, the Score ([6]; 20 ng/ml) was 0.789 and 0.740 and 0.705 and the “Up Score” value ([6]; 20 ng/ml) was 0.444 and 0.410 and 0.388.
